# Test results as given in the NIST ThermoML archive (doi:10.1016/j.jct.2004.05.009).
# Numbers after ± are expanded uncertainties.
# Settings: Liquid
compound,measurement,setting,value
Cl [hydrogen chloride],vapor or sublimation pressure,159.01 K,13.79 ± 0.3 kPa
same,vapor or sublimation pressure,182.33 K,72.13 ± 1.2 kPa
